Experimental data as given in ChEMBL document CHEMBL5614433, “The "Doorstop Pocket" In Thioredoxin Reductases─An Unexpected Druggable Regulator of the Catalytic Machinery” (J Med Chem, 2024).
pIC50: −log10 of the molar value.

Legend:
[1] = Inhibition of human TrxR1
[2] = molecular target: T1, Thioredoxin glutathione reductase (Schistosoma mansoni) (UniProt Q962Y6); assay: Inhibition of Schistosoma mansoni TGR at 66.7 uM incubated for 6 hrs in presence of NADPH
T1 sequence (whole entry): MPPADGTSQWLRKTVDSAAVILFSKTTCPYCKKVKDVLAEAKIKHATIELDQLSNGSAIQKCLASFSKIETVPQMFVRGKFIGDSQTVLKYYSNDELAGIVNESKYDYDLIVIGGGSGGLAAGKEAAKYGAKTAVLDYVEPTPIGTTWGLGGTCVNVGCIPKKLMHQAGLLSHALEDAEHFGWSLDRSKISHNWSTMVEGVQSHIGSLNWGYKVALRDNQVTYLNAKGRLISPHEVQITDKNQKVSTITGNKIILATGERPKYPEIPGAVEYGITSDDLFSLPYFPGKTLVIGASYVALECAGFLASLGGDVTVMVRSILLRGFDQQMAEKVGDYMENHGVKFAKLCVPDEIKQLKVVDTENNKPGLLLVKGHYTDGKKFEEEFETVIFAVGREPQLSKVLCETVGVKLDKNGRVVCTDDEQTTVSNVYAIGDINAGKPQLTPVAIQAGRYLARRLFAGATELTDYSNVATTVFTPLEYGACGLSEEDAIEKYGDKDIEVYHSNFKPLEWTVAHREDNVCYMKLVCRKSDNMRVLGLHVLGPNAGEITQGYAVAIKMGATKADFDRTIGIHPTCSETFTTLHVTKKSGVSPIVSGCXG

[3] = Inhibition of human TrxR1 incubated for 6 hrs in presence of NADPH
[4] = molecular target: T2, Thioredoxin glutathione reductase (Schistosoma mansoni, UniProt Q962Y6); assay: Inhibition of Schistosoma mansoni TGR incubated for 15 mins in presence of NADPH
T2 sequence (Q962Y6 whole entry): T1 sequence (whole entry)

[5] = Selectivity ratio of IC50 for human TrxR1 to IC50 for Schistosoma mansoni TGR
[6] = Cytotoxicity against african green monkey Vero cells measured after 24 hrs; assay type: toxicity, cell-based; settings: chlorocebus sabaeus, read-out: LD50
[7] = Inhibition of human TrxR1 incubated for 15 mins in presence of NADPH
Schistosoma mansoni = assay: Schistosomicidal-activity against Schistosoma mansoni adult worm measured after 24 hrs; assay type: functional; settings: read-out: LD50 (the source's name)

Structure (SMILES) | inhibition [2] [%] | pIC50 [3] | further results
O=C(Nc1ccc(Cl)cc1)c1ccc([N+](=O)[O-])o1 | – | – | pIC50 [1]: 5.42
Cc1oc(C2CCCCC2)nc1CN[C@@H]1C[C@@H]2C[C@H]([C@H]1C)C2(C)C | 28.7 | < 4.72 | –
Cc1oc(-c2ccc3ccccc3c2)nc1CNC1CCCCCC1 | 28.7 | < 4.72 | –
C[C@@H]1[C@H]2C[C@@H](C[C@H]1NCc1cn([C@@H]3OC[C@@H](O)[C@H](O)[C@H]3O)c3ccccc13)C2(C)C | – | – | pIC50 [4]: 4.24
C#CCN(Cc1nc(-c2ccccc2)oc1C)C1C[C@@H]2C[C@H]([C@H]1C)C2(C)C (stereo partly drawn) | – | – | Ratio IC50 [5]: 25; pIC50 [4]: 5.60; CC50 at 24 h [6]: > 100 µM; pIC50 [7]: < 4.18; LC50 (Schistosoma mansoni): 15.7 µM
C[C@@H]1[C@H]2C[C@@H](C[C@H]1NCc1nc3ccccc3n1C1CCCCCC1)C2(C)C | – | – | pIC50 [7]: 5.31

More lines, main results first:

inhibition [2] [%] | pIC50 [3] | Structure (SMILES) | further results
28.7 | < 4.72 | Cc1oc(-c2ccc3c(c2)OCO3)nc1CN[C@@H]1C[C@@H]2C[C@H]([C@H]1C)C2(C)C | –
28.7 | < 4.72 | Cc1oc(-c2ccccc2)nc1CN[C@@H]1C[C@@H]2C[C@H]([C@H]1C)C2(C)C | –
28.7 | < 4.72 | CCc1ccccc1-c1nc(CN[C@@H]2C[C@@H]3C[C@H]([C@H]2C)C3(C)C)c(C)o1 | –
